What follows are molecules tested against SARS-COV-2 3CLpro/Mpro protease (Severe acute respiratory syndrome coronavirus 2 (2019-nCoV) (SARS-CoV-2), UniProt P0DTD1) (assay: Inhibitory effect on SARS-COV-2 3CLpro/Mpro protease by fluorescence resonance energy transfer). Conditions: activity intervals A-D, read-out: IC50 (nM), Inhibition on SARS-CoV-2 3CLpro/Mpro protease.
Format: biochemical

CNc1cncc(C(=O)N[C@H]2CCCC[C@H]2Nc2c(C(=O)N3CCN(CCOC)CC3)cc(Br)cc2[N+](=O)[O-])c1 [Example 222] and CNc1cncc(C(=O)N[C@H]2CCCC[C@H]2Nc2c(C(=O)N3CCCCC3)cc(Br)cc2[N+](=O)[O-])c1 [Example 196] fall in the same range of IC50: 10 to 50 nM for the first, 10 to 50 nM for the second.

O=C(c1cncc(Br)c1)N1CC[C@@H](Nc2c(C(=O)N3CCCCC3)cc(Br)cc2C(F)(F)F)C1 [Example 47] and CC1(O)CN(C(=O)c2cncc(Br)c2)C[C@@H]1Nc1c(C(=O)N2CCCCC2)cc(Br)cc1[N+](=O)[O-] (some centres unmarked) [Example 246] fall in the same range of IC50: 10 to 50 nM for the first, 10 to 50 nM for the second.

First: CNc1cncc(C(=O)N2C[C@H](Nc3c(C(=O)N4C[C@@H](C)O[C@@H](C)C4)cc(Br)cc3[N+](=O)[O-])C[C@H]2C(=O)NCc2ccnc(NC)c2)c1 [Example 430]
Second: CNc1cncc(C(=O)N2C[C@H](Nc3c(C(=O)N4C[C@@H](C)O[C@@H](C)C4)cc(Br)cc3[N+](=O)[O-])C[C@H]2C(=O)NCc2ccnc(C(F)(F)F)n2)c1 [Example 450, (2S,4R)-4-((4-bromo-2-((2R,6S)-2,6-dimethylmorpholin-4-carbonyl)-6-nitrophenyl)amino)-1-(5-(methylamino)nicotinoyl)-N-((2-(trifluoromethyl)pyrimidin-4-yl)methyl) pyrrolidine-2-formamide]
The IC50 of the first is higher: 100 to 200 nM for the first, 10 to 50 nM for the second.

First: O=C(c1cncnc1)N1CCC[C@@H](Nc2c(C(=O)N3CCCCC3)cc(Br)cc2[N+](=O)[O-])C1 [Example 60]
Second: CNc1cncc(C(=O)N2CCC[C@@H](Nc3c(C(=O)N4CCC(C)CC4)cc(Br)cc3[N+](=O)[O-])C2)c1 [Example 248]
The IC50 of the first is higher: 50 to 100 nM for the first, 10 to 50 nM for the second.

C[C@@H]1CN(C(=O)c2cc(Br)cc([N+](=O)[O-])c2N[C@@H]2CCCN(C(=O)c3cc(=O)[nH]c4ccccc34)C2)CCO1 [Example 140] and O=C(c1cc(Br)cc([N+](=O)[O-])c1N[C@@H]1CCCN(C(=O)c2cc(=O)[nH]c3ccccc23)C1)N1CCC(N2CCOCC2)CC1 [Example 134] fall in the same range of IC50: 10 to 50 nM for the first, 10 to 50 nM for the second.

CNc1cncc(C(=O)N2C[C@H](Nc3c(C(=O)N4CCC(F)(F)CC4)cc(Br)cc3[N+](=O)[O-])[C@@H](OC)C2)c1 [Example 372] and CNc1cncc(C(=O)N2C[C@H](Nc3c(C(=O)N4CCCCC4)cc(Br)cc3[N+](=O)[O-])C(F)(F)C2)c1 [Example 81] fall in the same range of IC50: 10 to 50 nM for the first, 10 to 50 nM for the second.

C[C@@H]1CN(C(=O)c2cc(Br)cc([N+](=O)[O-])c2N[C@@H]2CCOC[C@@H]2NC(=O)c2cncc3ccccc23)C[C@H](C)O1 [Example 152] and O=C(N[C@H]1COCC[C@H]1Nc1c(C(=O)N2CCCCC2)cc(Br)cc1[N+](=O)[O-])c1cncc2ccccc12 [Example 194] fall in the same range of IC50: 10 to 50 nM for the first, 10 to 50 nM for the second.

O=C(c1cc(Br)cnc1F)N1CCC[C@@H](Nc2c(C(=O)N3CCC(F)(F)CC3)cc(Br)cc2[N+](=O)[O-])C1 [Example 106] and Cc1cc(C(=O)N2CCC[C@@H](Nc3c(C(=O)N4CCC(F)(F)CC4)cc(Br)cc3[N+](=O)[O-])C2)cc(=O)[nH]1 [Example 108] fall in the same range of IC50: 10 to 50 nM for the first, 10 to 50 nM for the second.

CNc1cncc(C(=O)N2C[C@H](Nc3c(C(=O)N4C[C@@H](C)O[C@@H](C)C4)cc(Br)cc3[N+](=O)[O-])C[C@H]2c2nnco2)c1 [Example 396] and C#C[C@@H]1C[C@@H](Nc2c(C(=O)N3C[C@@H](C)O[C@@H](C)C3)cc(Br)cc2[N+](=O)[O-])CN1C(=O)c1cncc(NC)c1 [Example 373] fall in the same range of IC50: 50 to 100 nM for the first, 50 to 100 nM for the second.

CNc1cncc(C(=O)N[C@H]2CCOC[C@H]2Nc2c(C(=O)N3C[C@H](C)O[C@@H](C)C3)cc(Br)cc2[N+](=O)[O-])c1 [Example 224] and CNc1cncc(C(=O)N2CCC[C@@H](Nc3c(C(=O)N4C[C@@H](C)O[C@H](C)C4)cc(Br)cc3[N+](=O)[O-])C2)c1 [Example 212] fall in the same range of IC50: 10 to 50 nM for the first, 10 to 50 nM for the second.

O=C(c1cc(Br)cc([N+](=O)[O-])c1N[C@@H]1CCCN(C(=O)[C@H]2CNCC(F)(F)C2)C1)N1CCOC2(CC2)C1 [Example 328] and O=C1C[C@H](C(=O)N2CCC[C@@H](Nc3c(C(=O)N4CCC5(CCCCC5)CC4)cc(Br)cc3[N+](=O)[O-])C2)CCN1 [Example 158] fall in the same range of IC50: 10 to 50 nM for the first, 10 to 50 nM for the second.

First: CNc1cncc(C(=O)N2CCC[C@@H](Nc3c(C(=O)N4CCC5(CCOC5)CC4)cc(Br)cc3[N+](=O)[O-])C2)c1 [Example 230]
Second: CNc1cncc(C(=O)N2CCC[C@@H](Nc3c(C(=O)N4CCCOC(C)C4)cc(Br)cc3[N+](=O)[O-])C2)c1 (some centres unmarked) [Example 334]
The IC50 of the first is lower: less than 10 nM for the first, 10 to 50 nM for the second.

C#C[C@@H]1CN(C(=O)c2cc(Br)cc([N+](=O)[O-])c2N[C@@H]2CCCN(C(=O)c3cncc(NC)c3)C2)CCO1 [Example 346] and CNc1cncc(C(=O)N2CCC[C@@H](Nc3c(C(=O)N4C[C@@H]5C[C@H]4CO5)cc(Br)cc3[N+](=O)[O-])C2)c1 [Example 291] fall in the same range of IC50: 10 to 50 nM for the first, 10 to 50 nM for the second.

Compared with CNc1cncc(C(=O)N2C[C@H](Nc3c(C(=O)N4C[C@@H](C)O[C@@H](C)C4)cc(Br)cc3[N+](=O)[O-])C[C@H]2C(=O)Nc2cc3nn(C)cc3cc2Cl)c1 [Example 429], CNc1cncc(C(=O)N2C[C@H](Nc3c(C(=O)N4C[C@@H](C)O[C@@H](C)C4)cc(Br)cc3[N+](=O)[O-])C[C@H]2C(=O)Nc2cc3cn(C)nc3cc2Cl)c1 [Example 399] is lower in IC50: 100 to 200 nM for the first, 50 to 100 nM for the second.

CNc1cncc(C(=O)N2CCC[C@@H](Nc3c(C(=O)N4CC(C)O[C@H](C(F)(F)F)C4)cc(Br)cc3[N+](=O)[O-])C2)c1 (some centres unmarked) [Example 345] and CNc1cncc(C(=O)N2CCC[C@@H](Nc3c(C(=O)N4CCN(CC(F)(F)F)CC4)cc(Br)cc3[N+](=O)[O-])C2)c1 [Example 22] fall in the same range of IC50: 10 to 50 nM for the first, 10 to 50 nM for the second.

First: CNc1cncc(C(=O)N2C[C@H](Nc3c(C(=O)N4C[C@@H](C)O[C@@H](C)C4)cc(Br)cc3[N+](=O)[O-])C[C@H]2C(=O)Nc2ccnc(C(F)(F)F)c2)c1 [Example 427, (2S,4R)-4-((4-bromo-2-((2R,6S)-2,6-dimethylmorpholin-4-carbonyl)-6-nitrophenyl)amino)-1-(5-(methylamino)nicotinoyl)-N-(2-(trifluoromethyl)pyridin-4-yl) pyrrolidine-2-formamide]
Second: CNc1cncc(C(=O)N2C[C@H](Nc3c(C(=O)N4C[C@@H](C)O[C@@H](C)C4)cc(Br)cc3[N+](=O)[O-])C[C@H]2C(=O)Nc2cnoc2)c1 [Example 369, (2S,4R)-4-((4-bromo-2-((2R,6S)-2,6-dimethylmorpholin-4-carbonyl)-6-nitrophenyl)amino)-N-(isoxazol-4-yl)-1-(5-(methylamino)nicotinoyl) pyrrolidin-2-formamide]
The IC50 of the first is higher: 100 to 200 nM for the first, 50 to 100 nM for the second.

C[C@H]1C[C@H](C)CN(C(=O)c2cc(Br)cc([N+](=O)[O-])c2N[C@@H]2CCCN(C(=O)[C@H]3CC(=O)N[C@@H](C)C3)C2)C1 [Example 262] and Cc1cc(C(=O)N2CCC[C@@H](Nc3c(C(=O)N4C[C@@H](C)O[C@@H](C)C4)cc(Br)cc3[N+](=O)[O-])C2)cc(=O)[nH]1 [Example 27, 4-((R)-3-((4-bromo-2-((2S,6R)-2,6-dimethylmorpholin-4-carbonyl)-6-nitrophenyl)amino)piperidin-1-carbonyl)-6-methylpyridin-2 (1H)-one] fall in the same range of IC50: 10 to 50 nM for the first, 10 to 50 nM for the second.

First: CNc1cncc(C(=O)N2CCC[C@@H](Nc3c(C(=O)N4C[C@@H](C)N(CCOC)[C@@H](C)C4)cc(Br)cc3[N+](=O)[O-])C2)c1 [Example 233]
Second: CNc1cncc(C(=O)N2CCC[C@@H](Nc3c(C(=O)N4Cc5cnn(C)c5C4)cc(Br)cc3[N+](=O)[O-])C2)c1 [Example 284]
The IC50 of the first is higher: 50 to 100 nM for the first, 10 to 50 nM for the second.

First: CNc1cncc(C(=O)N2C[C@H](Nc3c(C(=O)N4C[C@@H](C)O[C@@H](C)C4)cc(Br)cc3[N+](=O)[O-])C[C@H]2C(=O)Nc2nn(CC(F)(F)F)cc2Br)c1 [Example 417]
Second: CNc1cncc(C(=O)N2C[C@H](Nc3c(C(=O)N4C[C@@H](C)O[C@@H](C)C4)cc(Br)cc3[N+](=O)[O-])C[C@H]2C(=O)NC2CN(CCOC)C2)c1 [Example 413]
The IC50 of the first is lower: 50 to 100 nM for the first, 100 to 200 nM for the second.

Compared with CNc1cncc(C(=O)N2C[C@H](Nc3c(C(=O)N4C[C@@H](C)O[C@@H](C)C4)cc(Br)cc3[N+](=O)[O-])C[C@H]2C#Cc2cnoc2)c1 [Example 400], CNc1cncc(C(=O)N2C[C@H](Nc3c(C(=O)N4C[C@@H](C)O[C@@H](C)C4)cc(Br)cc3[N+](=O)[O-])CC[C@@H]2C#N)c1 [Example 403] is lower in IC50: 100 to 200 nM for the first, 50 to 100 nM for the second. The second is the more potent here.

CNc1cncc(C(=O)N2C[C@H](Nc3c(C(=O)N4C[C@@H](C)O[C@@H](C)C4)cc(Br)cc3[N+](=O)[O-])[C@@H](OCc3ncco3)C2)c1 [Example 460] and CNc1cncc(C(=O)N2C[C@H](Nc3c(C(=O)N4C[C@@H](C)O[C@@H](C)C4)cc(Br)cc3[N+](=O)[O-])[C@@H](OCc3nccs3)C2)c1 [Example 461] fall in the same range of IC50: 10 to 50 nM for the first, 10 to 50 nM for the second.

C[C@@H]1CN(C(=O)c2cc(Br)cc([N+](=O)[O-])c2NC2CN(C(=O)c3cncc(I)c3)CC2(F)F)C[C@H](C)O1 (some centres unmarked) [Example 164] and CNc1cncc(C(=O)N2C[C@H](Nc3c(C(=O)N4C[C@H](C)O[C@@H](C)C4)cc(Br)cc3[N+](=O)[O-])C(C)(C)C2)c1 [Example 189] fall in the same range of IC50: 10 to 50 nM for the first, 10 to 50 nM for the second.

O=C(N[C@H]1CCCC[C@H]1Nc1c(C(=O)N2CCC3(CC2)COC3)cc(Br)cc1[N+](=O)[O-])c1cncc2cc(Cl)ccc12 [Example 132] and O=C(N[C@H]1CCCC[C@H]1Nc1c(C(=O)N2CC3(CCOCC3)C2)cc(Br)cc1[N+](=O)[O-])c1cncc2cc(Cl)ccc12 [Example 124] fall in the same range of IC50: 10 to 50 nM for the first, 10 to 50 nM for the second.

CNc1cncc(C(=O)N2C[C@H](Nc3c(C(=O)N4CCN(CC(F)(F)F)C(=O)C4)cc(Br)cc3[N+](=O)[O-])C3(CC3)C2)c1 [Example 85] and CNc1cncc(C(=O)N2CCC[C@@H](Nc3c(C(=O)N4CCn5cncc5C4)cc(Br)cc3[N+](=O)[O-])C2)c1 [Example 314] fall in the same range of IC50: 10 to 50 nM for the first, 10 to 50 nM for the second.

First: Cc1cc(C(=O)N2CC(Nc3c(C(=O)N4CCC5(CCC5)CC4)cc(Br)cc3[N+](=O)[O-])C(F)(F)C2)cc(=O)[nH]1 (centres unmarked) [Example 154]
Second: Cc1cc(C(=O)N2C[C@H](Nc3c(C(=O)NCc4ccc(Cl)cc4)cc(Br)cc3[N+](=O)[O-])C3(CC3)C2)cc(=O)[nH]1 [Example 297]
The IC50 of the first is higher: 50 to 100 nM for the first, 10 to 50 nM for the second.
